Patent US10787432B2, “N-[(pyridyloxy)propanyl]benzamides” (Boehringer Ingelheim International GmbH, priority 2016, dated 2020)
Like-named read-outs stand apart in the source and are kept apart here.

Columns and labels:
human Orexin 1 receptor = molecular target: T1, human Orexin 1 receptor (Homo sapiens, UniProt O43613); experiment: Assay A: In vitro testing of OX1R potency: OX1R IP1 (HTRF, CHO-K1/hOX1 cells, Orexin A as agonist); format: cell-based; conditions: for Kb: read-out: OX1R Kb (Orexin A concentration used)
T1 construct: stably expressing the full-length human Orexin 1 receptor; expressed in transfected cells; host or cells: CHO-K1 (CHO-K1/hOX1), co-expressing aequorin
T1 sequence (O43613 1-425): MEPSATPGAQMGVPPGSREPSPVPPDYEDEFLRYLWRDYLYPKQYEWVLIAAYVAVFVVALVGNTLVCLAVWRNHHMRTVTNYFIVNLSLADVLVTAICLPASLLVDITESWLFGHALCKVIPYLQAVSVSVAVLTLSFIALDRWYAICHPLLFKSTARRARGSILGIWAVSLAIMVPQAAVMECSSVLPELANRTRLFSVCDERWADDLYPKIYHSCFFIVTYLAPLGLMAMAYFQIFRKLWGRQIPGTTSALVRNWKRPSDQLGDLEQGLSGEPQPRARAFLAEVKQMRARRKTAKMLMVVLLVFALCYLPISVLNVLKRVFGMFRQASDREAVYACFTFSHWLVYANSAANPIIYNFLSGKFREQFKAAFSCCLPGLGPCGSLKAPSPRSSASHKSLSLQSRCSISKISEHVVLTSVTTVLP

human orexin 2 receptor = molecular target: T2, human orexin 2 receptor (Homo sapiens, UniProt O43614); experiment: Assay B: In vitro testing of OX2R potency: OX2R IP1 (HTRF, CHO-K1/hOX2 cells, Orexin A as agonist); format: cell-based; conditions: Orexin A 0.5 nM
T2 construct: stably expressing the full-length human orexin 2 receptor; expressed in transfected cells; host or cells: CHO-K1 (CHO-K1/hOX2), co-expressing aequorin
T2 sequence (O43614 1-444): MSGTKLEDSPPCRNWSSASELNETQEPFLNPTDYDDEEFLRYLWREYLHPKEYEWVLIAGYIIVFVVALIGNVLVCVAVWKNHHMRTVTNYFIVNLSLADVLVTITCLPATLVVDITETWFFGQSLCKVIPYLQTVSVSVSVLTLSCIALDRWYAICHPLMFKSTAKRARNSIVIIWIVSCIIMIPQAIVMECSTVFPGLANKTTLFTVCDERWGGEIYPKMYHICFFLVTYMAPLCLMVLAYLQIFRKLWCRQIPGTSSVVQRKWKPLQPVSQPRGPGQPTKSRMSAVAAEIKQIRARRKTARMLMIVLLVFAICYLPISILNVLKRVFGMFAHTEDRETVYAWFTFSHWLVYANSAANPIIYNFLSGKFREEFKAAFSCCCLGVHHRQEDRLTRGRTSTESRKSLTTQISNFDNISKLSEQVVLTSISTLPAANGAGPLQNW
Excerpt: Activation of the orexin receptors expressed in cell lines results in an increase in intracellular IP3 concentration. IP1, a downstream metabolite of IP3, accumulates in cells following receptor activation and is stable in the presence of LiCl. Using Homogeneous Time-Resolved Fluorescence technology with Lumi4-Tb cryptate (commercially available from Cisbio Bioassay.) and a suitable fluorescence plate reader. […] Chem. Genomics 2009, 3, 22-32. This technique is used to characterize pharmacological modification of the orexin receptors.
B. In Vitro Testing of OX2R Potency: OX2R IP1
IP1 measurements are performed in CHO-K1 cells stably expressing the full-length human orexin 2 receptor and the aequorin photoprotein. Cells are cultivated in Ham's nutrient mixture F12 medium with 10% fetal calf serum, in a 37° C., 95% humidity and 5% CO2 incubator. The CHO-K1/hOX2 cell mass is expanded to larger cell numbers. The cells are obtained as frozen cells in cryo-vials and stored until use at −150° C. The viability of the cells after thawing is >90%. In preparation for the assay, 24 hours before the assay, the cells are thawed at 37° C. and immediately diluted with cell culture medium. After centrifugation, the cell pellet is resuspended in medium and then distributed into the assay plates with a density of 5000 cells/25 μL per well. The plates are incubated for one hour at room temperature to reduce edge effects before they are incubated for 24 hours at 37° C./5% CO2. Compounds are prepared by a 8-point serial dilution in DMSO and a final dilution step into assay buffer (HBSS with 20 mM HEPES, 0.1% BSA and 50 mM LiCl, pH 7.4) to ensure a final DMSO concentration of 1% in the assay.
On the day of the assay, cells in the plate are washed twice with 60 μL assay buffer (20 μL buffer remained in the wells after washing), followed by adding 5 μL per well of compounds diluted in assay buffer. After 15 minutes of incubation at room temperature 5 μL per well of Orexin A peptide (final concentration: 0.5 nM) dissolved in assay buffer is added to the assay plate. The assay plate is incubated for 60 minutes at 37° C. Then 5 μL per well of Anti-IP1-Cryptate Tb solution and 5 μL per well of IP1-d2 dilution are added to all well of the plate and the plate is incubated for a further 60 minutes light protected at room temperature. The emission at 615 nm and 665 nm (Excitation wavelength: 320 nm) are measured using an EnVision reader (PerkinElmer). The ratio between the emission at 665 nm and 615 is calculated by the reader.
8-point four parametric non-linear curve fitting and determination of IC50 values and Hill slopes is performed using a regular analysis software e.g. AssayExplorer (Accelrys). In order to establish an agonist concentration independent parameter, Kb values are calculated using the following equation: IC50/((2+(A/EC50)n)^1/n−1) (with A=concentration agonist, EC50=EC50 agonist, n=Hill slope agonist) (see P. Leff, I. G. Dougall, Trends Pharmacol. Sci. 1993, 14(4), 110-112).
Kb values from Assay A (OX1R) and Assay B (OX2R) can then provide a selectivity ratio which is independent of the agonist (Orexin A) concentration.

[1] = Assay C: Metabolic stability in human liver microsomes (Human MST); format: in vitro ADME; conditions: pooled human liver microsomes, pH 7.6; human liver microsomes 1 mg/mL, compound 1 μM, 37° C., NADPH; read-out: Human MST t1/2
Procedure: C. Assessment of Metabolic Stability in Human Liver Microsomes (Human MST)
The metabolic stability of the compounds according to the invention may be investigated as follows:
The metabolic degradation of the test compound is assayed at 37° C. with pooled human liver microsomes. The final incubation volume of 100 μL per time point contains TRIS buffer pH 7.6 at room temperature (0.1 M), MgCl2 (5 mM), microsomal protein (1 mg/mL) and the test compound at a final concentration of 1 μM. Following a short pre-incubation period at 37° C., the reactions are initiated by addition of beta-nicotinamide adenine dinucleotide phosphate, reduced form (NADPH, 1 mM), and terminated by transferring an aliquot into solvent after different time points. After centrifugation (10000 g, 5 min), an aliquot of the supernatant is assayed by LC-MS/MS for the amount of parent compound. The half-life (t1/2) is determined by the slope of the semi-logarithmic plot of the concentration-time profile.

| SMILES | OX2R Kb/OX1R Kb (human Orexin 1 receptor; OX1R Kb at 50 nM Orexin A) | Kb (human Orexin 1 receptor; Orexin A 50 nM) [nM] | Kb (human orexin 2 receptor) [nM] | half-life at 1 μM [1] [min] | OX2R Kb/OX1R Kb (human Orexin 1 receptor; OX1R Kb at 0.5 nM Orexin A) | Kb (human Orexin 1 receptor; Orexin A 0.5 nM) [nM] |
| --- | --- | --- | --- | --- | --- | --- |
| CCN(C(=O)c1ccccc1-c1cnn(C)c1)[C@@H](C)COc1ccc(C(F)(F)F)cn1 [Example 93] | 99 | 0.75 | 74 | 18 | – | – |
| CCN(C(=O)c1c(F)cccc1-n1nccn1)[C@@H](C)COc1ccc(C(F)(F)F)cn1 [Example 94] | 211 | 0.37 | 78 | 31 | – | – |
| CCN(C(=O)c1cc(C#N)ccc1-n1nccn1)[C@@H](C)COc1ccc(C(F)(F)F)cn1 [Example 95] | 74 | 0.5 | 37 | > 130 | 71 | 0.52 |
| CCN(C(=O)c1ccccc1-c1ccc(=O)n(C)c1)[C@@H](C)COc1ccc(C(F)(F)F)cn1 [Example 96] | – | – | 1610 | 34 | 217 | 7.4 |
| CCN(C(=O)c1cccc(F)c1-c1ncccn1)[C@@H](C)COc1ccc(C(F)(F)F)cn1 [Example 97] | 800 | 0.025 | 20 | 100 | – | – |
| CCN(C(=O)c1ccc(C)cc1-c1ncccn1)[C@@H](C)COc1ccc(C(F)(F)F)cn1 [Example 101] | – | – | 30 | 13 | 79 | 0.38 |
| CCN(C(=O)c1ccccc1-c1ncccn1)[C@@H](C)COc1ccc(C(F)(F)F)cn1 [Example 102] | 1080 | 0.025 | 27 | 36 | – | – |
| CCN(C(=O)c1ccc(C#N)cc1-n1nccn1)[C@@H](C)COc1ccc(C(F)(F)F)cn1 [Example 103] | – | – | 1170 | 58 | 273 | 4.28 |
| CCN(C(=O)c1cc(C)ccc1-c1ncccn1)[C@@H](C)COc1ccc(C(F)(F)F)cn1 [Example 105] | 524 | 0.021 | 11 | 10 | – | – |
| CCN(C(=O)c1cc(F)ccc1-c1ncccn1)[C@@H](C)COc1ccc(C(F)(F)F)cn1 [Example 107] | 500 | 0.064 | 32 | 65 | – | – |
| CCN(C(=O)c1ccc(F)cc1-c1ncccn1)[C@@H](C)COc1ccc(C(F)(F)F)cn1 [Example 108] | 409 | 0.11 | 45 | 50 | – | – |
| CCN(C(=O)c1cccc(F)c1-n1nccn1)[C@@H](C)COc1ccc(C(F)(F)F)cn1 [Example 109] | 327 | 0.11 | 36 | 75 | – | – |
| CCN(C(=O)c1cccc(F)c1-n1nccn1)[C@@H](C)COc1ncc(C(F)(F)F)cc1Cl [Example 110] | 312 | 0.17 | 53 | 100 | – | – |
| CCN(C(=O)c1cccc(F)c1-n1nccn1)[C@@H](C)COc1ccc(Br)cn1 [Example 111] | 213 | 0.23 | 49 | 62 | 123 | 0.4 |
| CCN(C(=O)c1cccc(F)c1-n1nccn1)[C@@H](C)COc1ncc(Br)cc1F [Example 112] | 192 | 0.5 | 96 | 67 | 168 | 0.57 |
| CCN(C(=O)c1cccc(F)c1-n1nccn1)[C@@H](C)COc1ncc(C(F)(F)F)cc1F [Example 113] | – | – | 69 | 95 | 173 | 0.4 |
| CCN(C(=O)c1cccc(F)c1-n1nccn1)[C@@H](C)COc1ccc(Cl)cn1 [Example 114] | 98 | 0.55 | 54 | 110 | 92 | 0.59 |
| CCN(C(=O)c1c(F)cccc1-c1ncccn1)[C@@H](C)COc1ccc(C(F)(F)F)cn1 [Example 116] | 205 | 0.22 | 45 | 33 | 132 | 0.34 |
| CCN(C(=O)c1ccccc1-c1ncccn1)[C@@H](C)COc1ccc(Br)cn1 [Example 117] | 318 | 0.11 | 35 | 32 | 194 | 0.18 |
| CCN(C(=O)c1ccc(OC)cc1-c1ncccn1)[C@@H](C)COc1ccc(C(F)(F)F)cn1 [Example 118] | 2875 | 0.032 | 92 | 15 | – | – |
| CCN(C(=O)c1cc(F)ccc1-c1ncccn1)[C@@H](C)COc1ccc(Br)cn1 [Example 120] | 358 | 0.12 | 43 | 76 | 165 | 0.26 |
| CCN(C(=O)c1ccc(C)cc1-c1nnc(C)o1)[C@@H](C)COc1ccc(OC(F)(F)F)cn1 [Example 121] | 293 | 1.5 | 440 | 15 | 314 | 1.4 |
| CCN(C(=O)c1ccccc1-c1noc(C)n1)[C@@H](C)COc1ccc(C(F)(F)F)cn1 [Example 123] | 200 | 0.17 | 34 | 23 | – | – |
